According to PubChem BioAssay AID330 (DTP/NCI, 2004):
Values joined by “and” are separate entries in the source; they are usually repeats but may differ in a detail not shown here. Identical values can stand only once. Inconclusive results and toxic doses are left out.

Tested on: P388 leukemia ip, CD2F1 mice, survival T/C
Experiment: NCI In Vivo Anticancer Drug Screen. Data for tumor model P388 Leukemia (intraperitoneal) in CD2F1 (CDF1) mice
Conditions: endpoint: median survival time, higher = longer survival
Outline: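 Mice carrying the transplanted tumor received test compound or vehicle. Survival was recorded in each group, and the value is the treated-group measurement divided by that of the vehicle-treated control group.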

For C(=N/NC1=NCCN1)/c1c2ccccc2c(/C=N\NC2=NCCN2)c2ccccc12, the T/C (dose: 0.05 mg/kg/injection, schedule: Q01DX009 (ip), vehicle: saline) was 155 % of control, the T/C (dose: 0.2 mg/kg/injection, schedule: Q01DX009 (ip), vehicle: saline) was 161 % of control and the T/C (dose: 0.39 mg/kg/injection, schedule: Q01DX009 (ip), vehicle: saline) was 183 % of control. The T/C (dose: 0.78 mg/kg/injection, schedule: Q01DX009 (ip), vehicle: saline) was 238 % of control, the T/C (dose: 1.56 mg/kg/injection, schedule: Q01DX009 (ip), vehicle: saline) was 188 % of control and 193 % of control and the T/C (dose: 3.12 mg/kg/injection, schedule: Q01DX009 (ip), vehicle: saline) was 204 % of control. For the same molecule, the T/C (dose: 5.18 mg/kg/injection, schedule: Q04DX002 (ip), vehicle: saline) was 181 % of control, the T/C (dose: 6.25 mg/kg/injection, schedule: Q01DX009 (ip), vehicle: saline) was 193 % of control and the T/C (dose: 7.78 mg/kg/injection, schedule: Q04DX002 (ip), vehicle: saline) was 228 % of control. The T/C (dose: 8.64 mg/kg/injection, schedule: Q04DX002 (ip), vehicle: saline) was 227 % of control, the T/C (dose: 12.5 mg/kg/injection, schedule: Q01DX009 (ip), vehicle: saline) was 225 % of control and the T/C (dose: 13.0 mg/kg/injection, schedule: Q04DX002 (ip), vehicle: saline) was 166 % of control. For the same molecule, the T/C (dose: 14.4 mg/kg/injection, schedule: Q04DX002 (ip), vehicle: saline) was 181 % of control, the T/C (dose: 21.6 mg/kg/injection, schedule: Q04DX002 (ip), vehicle: saline) was 184 % of control and the T/C (dose: 24.0 mg/kg/injection, schedule: Q04DX002 (ip), vehicle: saline) was 200 % of control. The T/C (dose: 25.0 mg/kg/injection, schedule: Q01DX009 (ip), vehicle: saline) was 121 % of control, the T/C (dose: 29.0 mg/kg/injection, schedule: Q01DX001 (ip), vehicle: water) was 195 % of control and the T/C (dose: 36.0 mg/kg/injection, schedule: Q04DX002 (ip), vehicle: saline) was 210 % of control. The T/C (dose: 40.0 mg/kg/injection, schedule: Q04DX002 (ip), vehicle: saline) was 181 % of control, the T/C (dose: 60.0 mg/kg/injection, schedule: Q04DX002 (ip), vehicle: saline) was 192 % of control and the T/C (dose: 87.0 mg/kg/injection, schedule: Q01DX001 (ip), vehicle: water) was 222 % of control. The T/C (dose: 133.0 mg/kg/injection, schedule: Q01DX001 (ip), vehicle: water) was 236 % of control, the T/C (dose: 200.0 mg/kg/injection, schedule: Q01DX001 (ip), vehicle: water) was 286 % of control and the T/C (dose: 1.57 micrograms/kg/injection, schedule: Q01DX009 (ip), vehicle: saline) was 100 % of control. The T/C (dose: 3.13 micrograms/kg/injection, schedule: Q01DX009 (ip), vehicle: saline) was 99 % of control, the T/C (dose: 6.25 micrograms/kg/injection, schedule: Q01DX009 (ip), vehicle: saline) was 107 % of control and the T/C (dose: 12.5 micrograms/kg/injection, schedule: Q01DX009 (ip), vehicle: saline) was 104 % of control. For the same molecule, the T/C (dose: 25.0 micrograms/kg/injection, schedule: Q01DX009 (ip), vehicle: saline) was 109 % of control and the T/C (dose: 50.0 micrograms/kg/injection, schedule: Q01DX009 (ip), vehicle: saline) was 122 % of control.
For CSc1ncn(C)c1C(N)=O, the T/C (dose: 50.0 mg/kg/injection, schedule: Q01DX005 (ip), vehicle: Klucel (hydroxypropylcellulose) (HPC)) was 97 % of control, the T/C (dose: 100.0 mg/kg/injection, schedule: Q01DX005 (ip), vehicle: Klucel (hydroxypropylcellulose) (HPC)) was 99 % of control and the T/C (dose: 200.0 mg/kg/injection, schedule: Q01DX005 (ip), vehicle: Klucel (hydroxypropylcellulose) (HPC)) was 99 % of control.
With CCOC(=O)C(Cc1ccc(O)cc1)NCc1ccc(N(CCCl)CCCl)cc1 (centres undefined) the T/C (dose: 12.5 mg/kg/injection, schedule: Q01DX009 (ip), vehicle: saline with Tween-80) was 109 % of control, the T/C (dose: 25.0 mg/kg/injection, schedule: Q01DX009 (ip), vehicle: saline with Tween-80) was 113 % of control and the T/C (dose: 100.0 mg/kg/injection, schedule: Q01DX009 (ip), vehicle: saline with Tween-80) was 160 % of control.
For ClC1=C(Cl)[C@@]2(Cl)[C@H]3[C@H]4C[C@H]([C@@H]5O[C@H]45)[C@H]3[C@@]1(Cl)C2(Cl)Cl, the T/C (dose: 12.5 mg/kg/injection, schedule: Q04DX003 (ip), vehicle: Klucel (hydroxypropylcellulose) (HPC)) was 95 % of control.
C/C=C/N1C(=O)C2C=CC1C(C(=O)OC)=C2C(=O)OC (centres undefined) was tested, and the T/C (dose: 100.0 mg/kg/injection, schedule: Q01DX001 (ip), vehicle: saline) was 100 % of control, the T/C (dose: 200.0 mg/kg/injection, schedule: Q01DX001 (ip), vehicle: saline) was 99 % of control and the T/C (dose: 400.0 mg/kg/injection, schedule: Q01DX001 (ip), vehicle: saline) was 94 % of control.
